From patent US6355799B1, “Substituted benzene compounds, process for their preparation, and herbicidal and defoliant compositions containing them” (ISK Americas Incorporated, priority 1997, dated 2002)

Experiments:
Format in all cases: in vivo
[1] = system: johnsongrass (Sorghum halepense, SORHA); assay: Pre-emerge test, greenhouse herbicide activity screening; conditions: rating scale 0-100, 14 days after application
Method in brief: (§1)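 Herbicidal damage is scored 0 (none) to 100 (complete plant death) two weeks after a simulated field spray. Rates span 15–1000 g ai/ha, delivered in acetone at 187 l/ha. For post-emergence treatments, plants have 2–3 leaves and the spray carries 0.25% v/v non-ionic surfactant.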

[2] = system: barnyardgrass (Echinochloa crus-galli, ECHCG); assay: as above; conditions: rating scale 0-100, 14 days after application
Method in brief: as §1

[3] = system: sicklepod (Cassia obtusifolia, CASOB); assay: as above; conditions: rating scale 0-100, 14 days after application
Method in brief: as §1

[4] = system: green foxtail (Setaria viridis, SETVI); assay: as above; conditions: rating scale 0-100, 14 days after application
Method in brief: as §1

[5] = system: velvetleaf (Abutilon theophrasti, ABUTH); assay: as above; conditions: rating scale 0-100, 14 days after application
Method in brief: as §1

[6] = system: large crabgrass (Digitaria sanguinalis, DIGSA); assay: as above; conditions: rating scale 0-100, 14 days after application
Method in brief: as §1

[7] = system: ivyleaf morningglory (Ipomoea hederacea, IPOHE); assay: as above; conditions: rating scale 0-100, 14 days after application
Method in brief: as §1

[8] = system: lambsquarters (Chenopodium album, CHEAL); assay: as above; conditions: rating scale 0-100, 14 days after application
Method in brief: as §1

[9] = system: field corn (Zea mays L., var. Dekalb 535, CORN); assay: Post-emerge test, crop safety; conditions: rating scale 0-100 (0 no damage, 100 complete death), 14 days after application
Method in brief: as §1

[10] = system: upland rice (Oryza sp., var. Tebonnet, RICE); assay: Post-emerge test, crop safety; conditions: rating scale 0-100 (0 no damage, 100 complete death), 14 days after application
Method in brief: as §1

[11] = system: field corn (Zea mays L., var. Dekalb 535, CORN); assay: Pre-emerge test, crop safety; conditions: rating scale 0-100, 14 days after application
Method in brief: (§2)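 Compounds in acetone were track-sprayed at 187 l/ha, 15–1000 g ai/ha, onto sandy loam pots. Pre-emerge seeds were sown one day before spraying, with surface watering afterwards. Post-emerge plants were at the 2–3 leaf stage and sprayed with 0.25% v/v non-ionic surfactant. Injury was rated 0–100 at 14 days.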

[12] = system: upland rice (Oryza sp., var. Tebonnet, RICE); assay: Pre-emerge test, crop safety; conditions: rating scale 0-100, 14 days after application
Method in brief: as §2

[13] = system: johnsongrass (Sorghum halepense, SORHA); assay: Post-emerge test, greenhouse herbicide activity screening; conditions: rating scale 0-100 (0 no damage, 100 complete death), 14 days after application
Method in brief: (§3)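 Compounds in acetone were track-sprayed at 15-1000 g ai/ha (187 l/ha) on sandy loam pots: pre-emerge one day after seeding, post-emerge at 2-3 leaf stage with 0.25% v/v non-ionic surfactant. Phytotoxicity was rated 14 days later on a 0 (no damage) to 100 (complete death) scale.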

[14] = system: barnyardgrass (Echinochloa crus-galli, ECHCG); assay: as above; conditions: rating scale 0-100 (0 no damage, 100 complete death), 14 days after application
Method in brief: as §3

[15] = system: sicklepod (Cassia obtusifolia, CASOB); assay: as above; conditions: rating scale 0-100 (0 no damage, 100 complete death), 14 days after application
Method in brief: as §3

[16] = system: redroot pigweed (Amaranthus retroflexus, AMARE); assay: as above; conditions: rating scale 0-100 (0 no damage, 100 complete death), 14 days after application
Method in brief: as §3

[17] = system: green foxtail (Setaria viridis, SETVI); assay: as above; conditions: rating scale 0-100 (0 no damage, 100 complete death), 14 days after application
Method in brief: as §3

[18] = system: velvetleaf (Abutilon theophrasti, ABUTH); assay: as above; conditions: rating scale 0-100 (0 no damage, 100 complete death), 14 days after application
Method in brief: as §3

[19] = system: large crabgrass (Digitaria sanguinalis, DIGSA); assay: as above; conditions: rating scale 0-100 (0 no damage, 100 complete death), 14 days after application
Method in brief: as §3

[20] = system: ivyleaf morningglory (Ipomoea hederacea, IPOHE); assay: as above; conditions: rating scale 0-100 (0 no damage, 100 complete death), 14 days after application
Method in brief: as §3

[21] = system: lambsquarters (Chenopodium album, CHEAL); assay: as above; conditions: rating scale 0-100 (0 no damage, 100 complete death), 14 days after application
Method in brief: as §3

[22] = system: redroot pigweed (Amaranthus retroflexus, AMARE); assay: Pre-emerge test, greenhouse herbicide activity screening; conditions: rating scale 0-100, 14 days after application
Method in brief: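 Visual ratings on a 0-100 scale (0 no damage, 100 all plants dead) were taken at 14 days after treatment. Rates of 15-1000 g ai/ha in acetone, 187 l/ha, were sprayed onto soil one day after planting (pre-emerge) or onto 2-3 leaf plants with 0.25% v/v surfactant (post-emerge).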

COc1c(Cl)cc(F)c(-n2c(=O)cc(C(F)(F)F)n(C)c2=O)c1CC(C)(Cl)C(=O)OCc1ccccc1 (centres unmarked) [14-41]
Pre-emerge herbicidal activity, phytotoxicity rating SORHA ([1]; 63 g ai/ha): 0 | Pre-emerge herbicidal activity, phytotoxicity rating SORHA ([1]; 250 g ai/ha): 0 | Pre-emerge herbicidal activity, phytotoxicity rating ECHCG ([2]; 63 g ai/ha): 0 | Pre-emerge herbicidal activity, phytotoxicity rating ECHCG ([2]; 250 g ai/ha): 80 | Pre-emerge herbicidal activity, phytotoxicity rating CASOB ([3]; 63 g ai/ha): 0 | Pre-emerge herbicidal activity, phytotoxicity rating CASOB ([3]; 250 g ai/ha): 0 | Pre-emerge herbicidal activity, phytotoxicity rating SETVI ([4]; 63 g ai/ha): 30 | Pre-emerge herbicidal activity, phytotoxicity rating SETVI ([4]; 250 g ai/ha): 100 | Pre-emerge herbicidal activity, phytotoxicity rating ABUTH ([5]; 63 g ai/ha): 90 | Pre-emerge herbicidal activity, phytotoxicity rating ABUTH ([5]; 250 g ai/ha): 100 | Pre-emerge herbicidal activity, phytotoxicity rating DIGSA ([6]; 63 g ai/ha): 50 | Pre-emerge herbicidal activity, phytotoxicity rating DIGSA ([6]; 250 g ai/ha): 100 | Pre-emerge herbicidal activity, phytotoxicity rating IPOHE ([7]; 63 g ai/ha): 0 | Pre-emerge herbicidal activity, phytotoxicity rating IPOHE ([7]; 250 g ai/ha): 40 | Pre-emerge herbicidal activity, phytotoxicity rating CHEAL ([8]; 63 g ai/ha): 100 | Pre-emerge herbicidal activity, phytotoxicity rating CHEAL ([8]; 250 g ai/ha): 100 | Post-emerge phytotoxicity rating CORN (crop damage) ([9]; Rate 63 g ai/ha): 100 | Post-emerge phytotoxicity rating CORN (crop damage) ([9]; Rate 250 g ai/ha): 100 | Post-emerge phytotoxicity rating RICE (crop damage) ([10]; Rate 63 g ai/ha): 20 | Post-emerge phytotoxicity rating RICE (crop damage) ([10]; Rate 250 g ai/ha): 95 | Pre-emerge phytotoxicity rating, crop damage CORN ([11]; 63 g ai/ha): 0 | Pre-emerge phytotoxicity rating, crop damage CORN ([11]; 250 g ai/ha): 0 | Pre-emerge phytotoxicity rating, crop damage RICE ([12]; 63 g ai/ha): 0 | Pre-emerge phytotoxicity rating, crop damage RICE ([12]; 250 g ai/ha): 50 | Post-emerge Herbicidal Activity, phytotoxicity rating SORHA ([13]; Rate 63 g ai/ha): 40 | Post-emerge Herbicidal Activity, phytotoxicity rating SORHA ([13]; Rate 250 g ai/ha): 70 | Post-emerge Herbicidal Activity, phytotoxicity rating ECHCG ([14]; Rate 63 g ai/ha): 100 | Post-emerge Herbicidal Activity, phytotoxicity rating ECHCG ([14]; Rate 250 g ai/ha): 100 | Post-emerge Herbicidal Activity, phytotoxicity rating CASOB ([15]; Rate 63 g ai/ha): 0 | Post-emerge Herbicidal Activity, phytotoxicity rating CASOB ([15]; Rate 250 g ai/ha): 0 | Post-emerge Herbicidal Activity, phytotoxicity rating AMARE ([16]; Rate 63 g ai/ha): 100 | Post-emerge Herbicidal Activity, phytotoxicity rating AMARE ([16]; Rate 250 g ai/ha): 100 | Post-emerge Herbicidal Activity, phytotoxicity rating SETVI ([17]; Rate 63 g ai/ha): 90 | Post-emerge Herbicidal Activity, phytotoxicity rating SETVI ([17]; Rate 250 g ai/ha): 100 | Post-emerge Herbicidal Activity, phytotoxicity rating ABUTH ([18]; Rate 63 g ai/ha): 100 | Post-emerge Herbicidal Activity, phytotoxicity rating ABUTH ([18]; Rate 250 g ai/ha): 100 | Post-emerge Herbicidal Activity, phytotoxicity rating DIGSA ([19]; Rate 63 g ai/ha): 100 | Post-emerge Herbicidal Activity, phytotoxicity rating DIGSA ([19]; Rate 250 g ai/ha): 100 | Post-emerge Herbicidal Activity, phytotoxicity rating IPOHE ([20]; Rate 63 g ai/ha): 30 | Post-emerge Herbicidal Activity, phytotoxicity rating IPOHE ([20]; Rate 250 g ai/ha): 50 | Post-emerge Herbicidal Activity, phytotoxicity rating CHEAL ([21]; Rate 63 g ai/ha): 100 | Post-emerge Herbicidal Activity, phytotoxicity rating CHEAL ([21]; Rate 250 g ai/ha): 100 | Pre-emerge herbicidal activity, phytotoxicity rating AMARE ([22]; 63 g ai/ha): 100 | Pre-emerge herbicidal activity, phytotoxicity rating AMARE ([22]; 250 g ai/ha): 100
